Experimental data from ChEMBL document CHEMBL5291721, “A preclinical secondary pharmacology resource illuminates target-adverse drug reaction associations of marketed drugs” (Nat Commun, 2023).

Tests used:
[1] = molecular target: Voltage-dependent L-type calcium channel subunit alpha-1C (Rattus norvegicus, UniProt P22002); type: functional
[2] = molecular target: Kappa-type opioid receptor (Homo sapiens, UniProt P41145)
Endothelin-1 receptor = molecular target: T1, Endothelin-1 receptor (Homo sapiens, UniProt P25101)
T1 sequence (P25101 whole entry): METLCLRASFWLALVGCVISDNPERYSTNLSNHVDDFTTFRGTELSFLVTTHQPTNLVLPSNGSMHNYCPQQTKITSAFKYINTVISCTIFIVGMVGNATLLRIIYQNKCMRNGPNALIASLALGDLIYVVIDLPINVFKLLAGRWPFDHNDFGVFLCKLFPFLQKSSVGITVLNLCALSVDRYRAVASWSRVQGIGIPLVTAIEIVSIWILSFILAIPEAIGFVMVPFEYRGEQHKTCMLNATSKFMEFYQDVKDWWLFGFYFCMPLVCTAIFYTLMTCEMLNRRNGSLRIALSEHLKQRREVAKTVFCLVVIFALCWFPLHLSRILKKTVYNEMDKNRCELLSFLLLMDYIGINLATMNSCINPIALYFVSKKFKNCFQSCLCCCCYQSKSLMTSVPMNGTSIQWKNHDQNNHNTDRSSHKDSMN

[3] = molecular target: T2, Neuropeptide Y receptor type 1 (Homo sapiens, UniProt P25929)
T2 sequence (P25929 whole entry): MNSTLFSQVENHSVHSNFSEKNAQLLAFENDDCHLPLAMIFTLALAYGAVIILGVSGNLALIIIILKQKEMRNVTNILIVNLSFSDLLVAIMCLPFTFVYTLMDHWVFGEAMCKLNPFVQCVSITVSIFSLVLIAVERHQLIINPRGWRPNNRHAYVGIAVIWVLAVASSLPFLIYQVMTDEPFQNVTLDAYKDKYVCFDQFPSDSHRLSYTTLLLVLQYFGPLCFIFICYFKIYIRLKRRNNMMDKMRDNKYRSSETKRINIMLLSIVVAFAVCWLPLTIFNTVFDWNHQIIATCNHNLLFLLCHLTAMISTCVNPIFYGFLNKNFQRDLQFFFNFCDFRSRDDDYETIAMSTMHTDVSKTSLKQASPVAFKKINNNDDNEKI

[4] = molecular target: T3, Muscarinic acetylcholine receptor M1 (Homo sapiens, UniProt P11229); type: functional
T3 sequence (P11229 whole entry): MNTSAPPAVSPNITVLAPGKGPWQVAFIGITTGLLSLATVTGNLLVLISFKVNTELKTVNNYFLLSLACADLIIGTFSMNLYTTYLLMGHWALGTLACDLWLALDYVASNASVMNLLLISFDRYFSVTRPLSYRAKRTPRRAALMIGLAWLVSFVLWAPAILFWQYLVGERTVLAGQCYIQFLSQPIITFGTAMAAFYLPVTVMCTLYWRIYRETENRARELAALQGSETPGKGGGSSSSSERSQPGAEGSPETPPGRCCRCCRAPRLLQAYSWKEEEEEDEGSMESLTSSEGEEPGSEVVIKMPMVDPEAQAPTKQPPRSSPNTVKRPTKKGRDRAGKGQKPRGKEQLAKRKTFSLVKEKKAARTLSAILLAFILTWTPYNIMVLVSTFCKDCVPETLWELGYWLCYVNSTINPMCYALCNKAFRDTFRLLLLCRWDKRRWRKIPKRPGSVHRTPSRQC

Melanocortin receptor 4 = Melanocortin receptor 4 (Homo sapiens, UniProt P32245)
Prothrombin = Prothrombin (Homo sapiens, UniProt P00734); type: functional
Acetylcholinesterase = Acetylcholinesterase (Homo sapiens, UniProt P22303); type: functional
[5] = molecular target: T4, Alpha-2A adrenergic receptor (Homo sapiens, UniProt P08913)
T4 sequence (P08913 whole entry): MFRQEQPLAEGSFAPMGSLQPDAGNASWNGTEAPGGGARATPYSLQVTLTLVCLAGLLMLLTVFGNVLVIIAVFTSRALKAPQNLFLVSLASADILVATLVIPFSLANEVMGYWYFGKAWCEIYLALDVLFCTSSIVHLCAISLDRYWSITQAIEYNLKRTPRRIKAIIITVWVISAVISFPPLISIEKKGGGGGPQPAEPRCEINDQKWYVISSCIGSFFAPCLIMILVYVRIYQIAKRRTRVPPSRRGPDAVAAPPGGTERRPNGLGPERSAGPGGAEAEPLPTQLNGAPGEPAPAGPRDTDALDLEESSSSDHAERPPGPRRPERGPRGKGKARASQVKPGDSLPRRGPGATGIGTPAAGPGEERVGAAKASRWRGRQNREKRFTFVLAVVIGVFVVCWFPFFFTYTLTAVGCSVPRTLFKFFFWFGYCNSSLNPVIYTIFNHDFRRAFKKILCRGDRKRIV

[6] = molecular target: cGMP-inhibited 3',5'-cyclic phosphodiesterase 3A (Homo sapiens, UniProt Q14432); type: functional
[7] = molecular target: T3, Muscarinic acetylcholine receptor M1; type: functional, cell-based
[8] = molecular target: Sodium-dependent serotonin transporter (Homo sapiens, UniProt P31645)
[9] = molecular target: T3, Muscarinic acetylcholine receptor M1; type: functional, cell-based; remark: listed apart in the source
Note: assay procedure not described here.

Sequence of Melanocortin receptor 4 (P32245 whole entry): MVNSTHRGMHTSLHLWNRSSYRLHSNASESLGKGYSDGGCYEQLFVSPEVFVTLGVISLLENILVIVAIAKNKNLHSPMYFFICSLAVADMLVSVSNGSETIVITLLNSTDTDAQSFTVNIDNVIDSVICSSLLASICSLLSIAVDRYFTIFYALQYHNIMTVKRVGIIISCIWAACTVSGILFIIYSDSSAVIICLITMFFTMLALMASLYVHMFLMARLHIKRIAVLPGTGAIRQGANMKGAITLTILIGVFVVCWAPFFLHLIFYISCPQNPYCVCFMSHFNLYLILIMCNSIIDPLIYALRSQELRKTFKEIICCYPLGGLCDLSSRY
Sequence of Kappa-type opioid receptor (P41145 whole entry): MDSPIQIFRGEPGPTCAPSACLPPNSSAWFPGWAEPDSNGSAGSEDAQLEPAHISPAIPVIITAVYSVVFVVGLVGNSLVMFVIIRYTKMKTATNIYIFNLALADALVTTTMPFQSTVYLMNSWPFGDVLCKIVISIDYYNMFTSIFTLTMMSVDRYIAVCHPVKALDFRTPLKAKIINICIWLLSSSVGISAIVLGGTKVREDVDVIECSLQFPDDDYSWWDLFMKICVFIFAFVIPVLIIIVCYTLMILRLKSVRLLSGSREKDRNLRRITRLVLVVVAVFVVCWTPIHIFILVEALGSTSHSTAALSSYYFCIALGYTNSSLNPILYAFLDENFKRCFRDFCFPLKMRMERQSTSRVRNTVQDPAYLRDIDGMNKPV
Sequence of Sodium-dependent serotonin transporter (P31645 whole entry): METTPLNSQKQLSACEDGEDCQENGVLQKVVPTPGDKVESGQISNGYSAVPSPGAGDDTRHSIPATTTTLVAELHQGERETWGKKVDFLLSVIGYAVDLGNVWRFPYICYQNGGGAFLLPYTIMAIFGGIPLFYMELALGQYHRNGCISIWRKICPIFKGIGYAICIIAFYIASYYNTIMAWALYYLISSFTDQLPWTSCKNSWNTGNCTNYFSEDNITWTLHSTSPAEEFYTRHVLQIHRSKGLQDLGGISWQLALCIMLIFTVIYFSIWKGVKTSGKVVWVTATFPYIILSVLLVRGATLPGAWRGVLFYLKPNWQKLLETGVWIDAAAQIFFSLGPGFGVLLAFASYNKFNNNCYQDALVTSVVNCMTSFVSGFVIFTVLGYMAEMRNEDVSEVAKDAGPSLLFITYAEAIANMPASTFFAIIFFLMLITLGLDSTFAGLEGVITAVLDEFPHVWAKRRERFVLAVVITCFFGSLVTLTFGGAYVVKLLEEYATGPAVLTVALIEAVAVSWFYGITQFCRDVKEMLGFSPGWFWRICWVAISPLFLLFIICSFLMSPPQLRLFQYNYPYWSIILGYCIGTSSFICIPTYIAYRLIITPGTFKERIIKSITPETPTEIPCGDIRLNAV
Sequence of cGMP-inhibited 3',5'-cyclic phosphodiesterase 3A (Q14432 whole entry): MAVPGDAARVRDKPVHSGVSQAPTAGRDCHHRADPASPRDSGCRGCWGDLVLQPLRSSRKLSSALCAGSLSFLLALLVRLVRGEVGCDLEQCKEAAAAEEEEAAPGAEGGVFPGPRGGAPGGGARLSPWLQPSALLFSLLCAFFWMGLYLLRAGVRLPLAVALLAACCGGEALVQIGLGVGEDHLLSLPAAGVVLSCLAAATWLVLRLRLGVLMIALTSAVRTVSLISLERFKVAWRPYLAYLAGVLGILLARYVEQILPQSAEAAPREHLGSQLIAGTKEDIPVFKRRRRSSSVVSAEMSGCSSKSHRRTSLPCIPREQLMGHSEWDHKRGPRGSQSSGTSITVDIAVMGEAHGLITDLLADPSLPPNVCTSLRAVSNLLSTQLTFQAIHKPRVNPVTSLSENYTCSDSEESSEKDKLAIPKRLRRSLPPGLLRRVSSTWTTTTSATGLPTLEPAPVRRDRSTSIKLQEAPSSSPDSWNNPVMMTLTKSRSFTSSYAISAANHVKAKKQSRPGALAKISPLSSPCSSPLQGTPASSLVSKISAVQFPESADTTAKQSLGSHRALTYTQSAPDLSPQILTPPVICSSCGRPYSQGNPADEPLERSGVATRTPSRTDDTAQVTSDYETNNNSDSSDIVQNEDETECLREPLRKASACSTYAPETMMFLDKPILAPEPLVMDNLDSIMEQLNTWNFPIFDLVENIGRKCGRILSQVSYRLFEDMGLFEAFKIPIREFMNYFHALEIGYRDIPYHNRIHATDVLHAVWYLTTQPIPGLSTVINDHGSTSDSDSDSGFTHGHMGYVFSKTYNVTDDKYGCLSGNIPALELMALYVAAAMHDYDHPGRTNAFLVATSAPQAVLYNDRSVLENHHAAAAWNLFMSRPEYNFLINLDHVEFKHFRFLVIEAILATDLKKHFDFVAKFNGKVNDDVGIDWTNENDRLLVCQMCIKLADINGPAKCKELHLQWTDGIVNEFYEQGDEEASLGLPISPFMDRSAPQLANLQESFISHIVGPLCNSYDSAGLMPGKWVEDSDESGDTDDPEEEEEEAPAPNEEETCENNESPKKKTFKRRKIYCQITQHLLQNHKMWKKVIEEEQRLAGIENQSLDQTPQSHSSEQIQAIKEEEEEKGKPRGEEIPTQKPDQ
Sequence of Acetylcholinesterase (P22303 whole entry): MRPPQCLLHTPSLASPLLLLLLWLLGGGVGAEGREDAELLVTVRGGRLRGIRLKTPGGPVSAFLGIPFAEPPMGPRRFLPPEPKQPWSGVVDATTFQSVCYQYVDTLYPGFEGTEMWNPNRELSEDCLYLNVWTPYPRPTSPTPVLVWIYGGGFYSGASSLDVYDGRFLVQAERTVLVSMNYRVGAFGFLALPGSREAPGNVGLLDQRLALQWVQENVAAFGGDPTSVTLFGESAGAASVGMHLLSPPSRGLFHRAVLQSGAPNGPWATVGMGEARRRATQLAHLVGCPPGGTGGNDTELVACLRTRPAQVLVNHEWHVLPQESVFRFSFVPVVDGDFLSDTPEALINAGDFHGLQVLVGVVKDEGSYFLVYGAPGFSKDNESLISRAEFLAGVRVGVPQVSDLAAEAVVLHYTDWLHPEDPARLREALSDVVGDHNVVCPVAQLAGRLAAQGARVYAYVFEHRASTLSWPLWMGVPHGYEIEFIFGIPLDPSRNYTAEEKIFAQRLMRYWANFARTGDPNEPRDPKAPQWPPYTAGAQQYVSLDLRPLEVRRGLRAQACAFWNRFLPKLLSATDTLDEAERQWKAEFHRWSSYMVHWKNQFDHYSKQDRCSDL

AC50 [1] | AC50 [2] | AC50 (Endothelin-1 receptor) | AC50 [3] | AC50 [4] | AC50 (Melanocortin receptor 4) | SMILES | AC50 (Prothrombin) | AC50 (Acetylcholinesterase) | AC50 [5] | AC50 [6] | AC50 [7] | AC50 [8] | AC50 [9]
> 10 µM | > 10 µM | > 30 µM | > 30 µM | > 10 µM | > 30 µM | Clc1ccc2nsnc2c1NC1=NCCN1 [TIZANIDINE] | – | – | – | – | – | – | –
> 30 µM | > 30 µM | > 30 µM | > 30 µM | > 30 µM | – | COc1ccccc1OCC(O)CN1CCN(CC(=O)Nc2c(C)cccc2C)CC1 (stereo not drawn) [RANOLAZINE] | – | – | – | – | – | – | –
– | – | – | – | – | – | COC(c1ccccc1)(c1ccccc1)[C@H](Oc1nc(C)cc(C)n1)C(=O)O [AMBRISENTAN] | > 30 µM | > 30 µM | > 30 µM | > 30 µM | > 30 µM | > 30 µM | > 30 µM
> 10 µM | > 10 µM | – | > 10 µM | – | > 10 µM | CN(C)/N=N/c1[nH]cnc1C(N)=O [DACARBAZINE] | – | – | – | – | – | – | –
– | – | – | – | – | – | CN(C)CCn1nnnc1SCC1=C(C(=O)O)N2C(=O)[C@@H](NC(=O)Cc3csc(N)n3)[C@H]2SC1 [CEFOTIAM] | > 30 µM | > 30 µM | > 30 µM | > 30 µM | > 30 µM | > 30 µM | > 30 µM
> 10 µM | > 10 µM | – | > 10 µM | > 10 µM | > 10 µM | Nc1ccn([C@H]2CC[C@@H](CO)O2)c(=O)n1 [ZALCITABINE] | – | – | – | – | – | – | –
– | – | – | – | – | – | CC(C)(S)[C@@H](N)C(=O)O [PENICILLAMINE] | > 30 µM | > 30 µM | > 30 µM | > 30 µM | – | – | –
– | > 30 µM | > 30 µM | > 30 µM | > 30 µM | – | CC(=O)NCCCS(=O)(=O)O [ACAMPROSATE] | – | – | – | – | – | – | –
> 10 µM | > 10 µM | > 30 µM | > 30 µM | – | > 30 µM | CC1=C(C(=O)O)N2C(=O)[C@@H](NC(=O)[C@H](N)c3ccccc3)[C@H]2SC1 [CEPHALEXIN ANHYDROUS] | – | – | – | – | – | – | –
> 10 µM | > 10 µM | – | > 10 µM | – | > 10 µM | Clc1ccc(C(c2ccccc2Cl)C(Cl)Cl)cc1 (stereo not drawn) [MITOTANE] | – | – | – | – | – | – | –
– | – | – | – | – | – | CCOC(=O)[C@H](CCc1ccccc1)N[C@@H](C)C(=O)N1[C@H](C(=O)O)C[C@H]2CCCC[C@@H]21 [TRANDOLAPRIL] | > 30 µM | > 30 µM | > 30 µM | > 30 µM | > 30 µM | > 30 µM | > 30 µM
> 30 µM | > 30 µM | > 30 µM | > 30 µM | > 30 µM | – | CCCCN1C[C@H](O)[C@@H](O)[C@H](O)[C@H]1CO | – | – | – | – | – | – | –
> 10 µM | > 10 µM | – | > 10 µM | > 10 µM | > 10 µM | NS(=O)(=O)Cc1noc2ccccc12 [ZONISAMIDE] | – | – | – | – | – | – | –
> 30 µM | > 30 µM | > 30 µM | > 30 µM | > 30 µM | – | COc1cc2nc(N(C)CCCNC(=O)C3CCCO3)nc(N)c2cc1OC (stereo not drawn) [ALFUZOSIN] | – | – | – | – | – | – | –
> 10 µM | > 10 µM | – | > 30 µM | > 10 µM | > 30 µM | CN1C(C(=O)Nc2ccccn2)=C(O)c2sc(Cl)cc2S1(=O)=O [LORNOXICAM] | – | – | – | – | – | – | –
– | – | – | – | – | – | C[C@]12CC[C@@H]3c4ccc(O)cc4CC[C@H]3[C@@H]1C[C@@H](O)[C@@H]2O [ESTRIOL] | > 30 µM | > 30 µM | > 30 µM | > 30 µM | – | – | –
> 30 µM | > 30 µM | > 30 µM | > 30 µM | – | > 30 µM | CCC(C)n1ncn(-c2ccc(N3CCN(c4ccc(OCC5COC(Cn6cncn6)(c6ccc(Cl)cc6Cl)O5)cc4)CC3)cc2)c1=O (stereo not drawn) [ITRACONAZOLE] | – | – | – | – | – | – | –

SMILES | AC50 [1] | AC50 [2] | AC50 (Endothelin-1 receptor) | AC50 [3] | AC50 [4] | AC50 (Melanocortin receptor 4) | AC50 (Prothrombin) | AC50 (Acetylcholinesterase) | AC50 [5] | AC50 [6] | AC50 [7] | AC50 [8] | AC50 [9]
Cc1cccc(Nc2ccccc2C(=O)O)c1C [MEFENAMIC ACID] | > 10 µM | > 10 µM | – | > 10 µM | – | > 10 µM | > 30 µM | > 30 µM | > 30 µM | > 30 µM | – | – | –
COc1ccc(CC(C)(C)NC[C@H](O)c2cc(O)cc3c2OCC(=O)N3)cc1 [OLODATEROL] | – | – | > 30 µM | – | > 30 µM | – | – | – | – | – | – | – | –
CN1C(=O)CCS(=O)(=O)C1c1ccc(Cl)cc1 (stereo not drawn) [CHLORMEZANONE] | > 10 µM | > 10 µM | – | > 10 µM | > 30 µM | > 10 µM | – | – | – | – | – | – | –
O=C(O[C@H]1C[C@H]2CC[C@@H](C1)[N+]21CCCC1)C(O)(c1ccccc1)c1ccccc1 [TROSPIUM] | > 30 µM | > 30 µM | – | > 30 µM | 0.028 µM | > 30 µM | – | – | – | – | – | – | –
CCCSc1ccc2nc(NC(=O)OC)[nH]c2c1 [ALBENDAZOLE] | > 10 µM | > 10 µM | – | > 10 µM | – | > 10 µM | – | – | – | – | – | – | –
C=CCc1ccccc1OCC(O)CNC(C)C (stereo not drawn) [ALPRENOLOL] | > 30 µM | > 30 µM | > 30 µM | > 30 µM | > 30 µM | – | > 0.3 µM | > 0.3 µM | > 0.3 µM | > 0.3 µM | > 0.3 µM | > 0.3 µM | > 0.3 µM
Cc1cn([C@H]2C=C[C@@H](CO)O2)c(=O)[nH]c1=O [STAVUDINE] | > 10 µM | > 10 µM | > 30 µM | > 30 µM | – | > 30 µM | > 30 µM | > 30 µM | > 30 µM | > 30 µM | – | – | –
CC1(C)NC(=O)N(c2ccc([N+](=O)[O-])c(C(F)(F)F)c2)C1=O [NILUTAMIDE] | > 30 µM | > 30 µM | – | > 30 µM | > 30 µM | > 30 µM | > 30 µM | > 30 µM | > 30 µM | > 30 µM | > 30 µM | > 30 µM | > 3 µM
O=P1(NCCCl)OCCCN1CCCl (stereo not drawn) [IFOSFAMIDE] | > 30 µM | > 30 µM | – | > 30 µM | – | > 30 µM | – | – | – | – | – | – | –
